Laboratory results from patent US8163779B2, “Glucokinase activators” (Takeda San Diego, Inc., priority 2006, dated 2012).

target: T1, glucokinase (GK) (Homo sapiens, UniProt P35557); assay: enzymatic glucokinase activity assay (ATP consumption, KinaseGlo luminescence); format: biochemical; details: recombinant GK residues 12-465; 5 μM ATP, 5 mM Glucose; Kact = concentration that displays 50% of the maximal increase in GK activity; read-out: pKact
T1 construct: I.D. No. 1 corresponds to residues 12-465 of glucokinase; made in house; host or cells: E. coli DH10b-T1r
T1 sequence (P35557 with tags, fused parts or gaps isoform P35557-2): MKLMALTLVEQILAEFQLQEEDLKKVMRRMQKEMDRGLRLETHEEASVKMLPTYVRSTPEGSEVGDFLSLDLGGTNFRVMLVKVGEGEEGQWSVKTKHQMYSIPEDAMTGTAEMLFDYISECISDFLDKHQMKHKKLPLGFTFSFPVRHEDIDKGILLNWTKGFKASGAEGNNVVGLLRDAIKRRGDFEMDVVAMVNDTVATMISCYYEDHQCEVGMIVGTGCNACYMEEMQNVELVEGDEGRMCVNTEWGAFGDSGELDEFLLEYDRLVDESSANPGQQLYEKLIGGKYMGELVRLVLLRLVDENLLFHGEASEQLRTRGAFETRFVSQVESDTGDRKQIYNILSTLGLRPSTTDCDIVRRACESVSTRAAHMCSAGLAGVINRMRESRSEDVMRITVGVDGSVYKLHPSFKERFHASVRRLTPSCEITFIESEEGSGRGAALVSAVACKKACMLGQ
How it was run: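 Recombinant human glucokinase expressed in E. coli was run in 25 mM Hepes pH 7.2 with 10 mM MgCl2, 1 mM DTT, 5 μM ATP, 5 mM glucose and 2% DMSO for 60 min at room temperature. Remaining ATP was read by KinaseGlo luminescence; pKact came from non-linear curve fits.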

EC50 [µM]	Structure (SMILES)
< 1.58	COc1ccc2nc(NC(=O)[C@H](CC3CCCCC3)n3c(C)cc(S(=O)(=O)C4CC4)cc3=O)sc2n1 [Example 123, (S)-3-cyclohexyl-2-(4-(cyclopropylsulfonyl)-6-methyl-2-oxopyridin-1(2H)-yl)-N-(5-methoxythiazolo[5,4-b]pyridin-2-yl)propanamide]
1.58 to 15.8	Cc1cc(S(=O)(=O)C2CCCC2)cc(=O)n1[C@@H](CC1CCOCC1)C(=O)Nc1ccc(F)cn1 [Example 165, (S)-2-(4-(cyclopentylsulfonyl)-6-methyl-2-oxopyridin-1(2H)-yl)-N-(5-fluoropyridin-2-yl)-3-(tetrahydro-2H-pyran-4-yl)propanamide]
> 15.8	COc1ccc(CC(C(=O)Nc2nccs2)n2c(C)cc(S(=O)(=O)C3CCCC3)cc2=O)cc1 (stereo not shown) [Example 27, 2-(4-(cyclopentylsulfonyl)-6-methyl-2-oxopyridin-1(2H)-yl)-3-(4-methoxyphenyl)-N-(thiazol-2-yl)propanamide]
> 15.8	Cc1cc(-c2ccoc2)cc(=O)n1[C@@H](CC1CCCCC1)C(=O)Nc1nccs1 [Example 99, (S)-3-cyclohexyl-2-(4-(furan-3-yl)-6-methyl-2-oxopyridin-1(2H)-yl)-N-(thiazol-2-yl)propanamide]
1.58 to 15.8	Cc1cc(S(=O)(=O)C2CCOCC2)cc(=O)n1C(CC1CCCC1)C(=O)Nc1ncc(F)s1 (stereo not shown) [Example 175, 3-cyclopentyl-N-(5-fluorothiazol-2-yl)-2-(6-methyl-2-oxo-4-(tetrahydro-2H-pyran-4-ylsulfonyl)pyridin-1(2H)-yl)propanamide]
< 1.58	Cc1occc1S(=O)(=O)c1cc(C)n(C(CC2CCCCC2)C(=O)Nc2ncc(Cl)s2)c(=O)c1 (stereo not shown) [Example 54, N-(5-chlorothiazol-2-yl)-3-cyclohexyl-2-(6-methyl-4-(2-methylfuran-3-ylsulfonyl)-2-oxopyridin-1(2H)-yl)propanamide]
1.58 to 15.8	Cc1cc(S(=O)(=O)C2CCOCC2)cc(=O)n1[C@@H](CC1CCCC1)C(=O)Nc1ncc(Cl)s1 [Example 191, (S)-N-(5-chlorothiazol-2-yl)-3-cyclopentyl-2-(6-methyl-2-oxo-4-(tetrahydro-2H-pyran-4-ylsulfonyl)pyridin-1(2H)-yl)propanamide]
< 1.58	Cc1cc(S(=O)(=O)C2CCCC2)cc(=O)n1[C@@H](CC1CCOCC1)C(=O)Nc1ccc(Cl)cn1 [Example 166, (S)-N-(5-chloropyridin-2-yl)-2-(4-(cyclopentylsulfonyl)-6-methyl-2-oxopyridin-1(2H)-yl)-3-(tetrahydro-2H-pyran-4-yl)propanamide]
> 15.8	Cc1cc(-c2cccc(NS(C)(=O)=O)c2)cc(=O)n1[C@@H](CC1CCCCC1)C(=O)Nc1nccs1 [Example 112, (S)-3-cyclohexyl-2-(6-methyl-4-(3-(methylsulfonamido)phenyl)-2-oxopyridin-1(2H)-yl)-N-(thiazol-2-yl)propanamide]
> 15.8	Cc1cc(S(=O)(=O)C2CCOCC2)cc(=O)n1[C@H](CC1CCCC1)C(=O)Nc1ncc(Cl)s1 [Example 192, (R)-N-(5-chlorothiazol-2-yl)-3-cyclopentyl-2-(6-methyl-2-oxo-4-(tetrahydro-2H-pyran-4-ylsulfonyl)pyridin-1(2H)-yl)propanamide]
1.58 to 15.8	CNS(=O)(=O)c1cccc(-c2cc(C)n([C@@H](CC3CCCCC3)C(=O)Nc3nccs3)c(=O)c2)c1 [Example 114, (S)-3-cyclohexyl-2-(6-methyl-4-(3-(N-methylsulfamoyl)phenyl)-2-oxopyridin-1(2H)-yl)-N-(thiazol-2-yl)propanamide]
< 1.58	Cc1cc(S(=O)(=O)C2CC2)c(Cl)c(=O)n1[C@@H](CC1CCCCC1)C(=O)Nc1ncc(Cl)s1 [Example 77, (S)-2-(3-chloro-4-(cyclopropylsulfonyl)-6-methyl-2-oxopyridin-1(2H)-yl)-N-(5-chlorothiazol-2-yl)-3-cyclohexylpropanamide]
> 15.8	Cc1cc(-c2cccc(S(C)(=O)=O)c2)cc(=O)n1[C@@H](CC1CCCCC1)C(=O)Nc1nccs1 [Example 126, (S)-3-cyclohexyl-2-(6-methyl-4-(3-(methylsulfonyl)phenyl)-2-oxopyridin-1(2H)-yl)-N-(thiazol-2-yl)propanamide]
1.58 to 15.8	Cc1cc(S(=O)(=O)C2CCOCC2)cc(=O)n1C(CC1CCCC1)C(=O)Nc1ncc(Cl)s1 (stereo not shown) [Example 174, N-(5-chlorothiazol-2-yl)-3-cyclopentyl-2-(6-methyl-2-oxo-4-(tetrahydro-2H-pyran-4-ylsulfonyl)pyridin-1(2H)-yl)propanamide]
> 15.8	Cc1cc(-c2cccc(F)c2)cc(=O)n1[C@@H](CC1CCCCC1)C(=O)Nc1nccs1 [Example 109, (S)-3-cyclohexyl-2-(4-(3-fluorophenyl)-6-methyl-2-oxopyridin-1(2H)-yl)-N-(thiazol-2-yl)propanamide]
> 15.8	COc1ccc(-c2cc(C)n([C@@H](CC3CCCCC3)C(=O)Nc3nccs3)c(=O)c2)cc1 [Example 96, (S)-3-cyclohexyl-2-(4-(4-methoxyphenyl)-6-methyl-2-oxopyridin-1(2H)-yl)-N-(thiazol-2-yl)propanamide]

The next lines start with the compound.

Structure (SMILES)	EC50 [µM]
COCCC(C)(C)S(=O)(=O)c1ccn([C@H](CC2CCOCC2)C(=O)Nc2nc3ccc(OC)nc3s2)c(=O)c1 [Example 120, (R)-2-(4-(4-methoxy-2-methylbutan-2-ylsulfonyl)-2-oxopyridin-1(2H)-yl)-N-(5-methoxythiazolo[5,4-b]pyridin-2-yl)-3-(tetrahydro-2H-pyran-4-yl)propanamide]	> 15.8
O=C(Nc1ncc(Cl)s1)C(CC1CCOCC1)n1ccc(S(=O)(=O)CC(F)(F)F)cc1=O (stereo not shown) [Example 146, N-(5-chlorothiazol-2-yl)-2-(2-oxo-4-(2,2,2-trifluoroethylsulfonyl)pyridin-1(2H)-yl)-3-(tetrahydro-2H-pyran-4-yl)propanamide]	> 15.8
NC(=O)c1ccc(NC(=O)[C@@H](CC2CCOCC2)n2ccc(S(=O)(=O)C3CCCC3)cc2=O)nc1 [Example 47, (R)-6-(2-(4-(cyclopentylsulfonyl)-2-oxopyridin-1(2H)-yl)-3-(tetrahydro-2H-pyran-4-yl)propanamido)nicotinamide]	> 15.8
COc1ccc2nc(NC(=O)[C@@H](CC3CCOCC3)n3ccc(S(=O)(=O)C4CC4)cc3=O)sc2n1 [Example 48, (R)-2-(4-(cyclopropylsulfonyl)-2-oxopyridin-1(2H)-yl)-N-(5-methoxythiazolo[5,4-b]pyridin-2-yl)-3-(tetrahydro-2H-pyran-4-yl)propanamide]	1.58 to 15.8
COc1ccc2nc(NC(=O)[C@@H](CC3CCOCC3)n3ccc(S(=O)(=O)C4CCCC4)cc3=O)sc2n1 [Example 58, (R)-2-(4-(cyclopentylsulfonyl)-2-oxopyridin-1(2H)-yl)-N-(5-methoxythiazolo[5,4-b]pyridin-2-yl)-3-(tetrahydro-2H-pyran-4-yl)propanamide]	> 15.8
O=C(Nc1ncc(F)s1)[C@@H](CC1CCOCC1)n1ccc(S(=O)(=O)C2CC2)cc1=O [Example 36, (R)-2-(4-(cyclopropylsulfonyl)-2-oxopyridin-1(2H)-yl)-N-(5-fluorothiazol-2-yl)-3-(tetrahydro-2H-pyran-4-yl)propanamide]	> 15.8
Cc1c(S(=O)(=O)C2CCCC2)c(C)c(=O)n([C@H](CC2CCOCC2)C(=O)Nc2ncc(Cl)s2)c1C [Example 136, (R)-N-(5-chlorothiazol-2-yl)-2-(4-(cyclopentylsulfonyl)-3,5,6-trimethyl-2-oxopyridin-1(2H)-yl)-3-(tetrahydro-2H-pyran-4-yl)propanamide]	1.58 to 15.8
COC(C)(C)c1cnc(NC(=O)[C@H](CC2CCOCC2)n2ccc(S(=O)(=O)C3CC3)cc2=O)s1 [Example 133, (S)-2-(4-(cyclopropylsulfonyl)-2-oxopyridin-1(2H)-yl)-N-(5-(2-methoxypropan-2-yl)thiazol-2-yl)-3-(tetrahydro-2H-pyran-4-yl)propanamide]	1.58 to 15.8
Cc1cc(S(=O)(=O)Cc2ccco2)cc(=O)n1C(CC1CCOCC1)C(=O)Nc1ncc(Cc2ccc(F)cc2)s1 (stereo not shown) [Example 144, N-(5-(4-fluorobenzyl)thiazol-2-yl)-2-(4-(furan-2-ylmethylsulfonyl)-6-methyl-2-oxopyridin-1(2H)-yl)-3-(tetrahydro-2H-pyran-4-yl)propanamide]	1.58 to 15.8
Cn1ccc(NC(=O)[C@@H](CC2CCOCC2)n2ccc(S(=O)(=O)C3CC3)cc2=O)n1 [Example 73, (R)-2-(4-(cyclopropylsulfonyl)-2-oxopyridin-1(2H)-yl)-N-(1-methyl-1H-pyrazol-3-yl)-3-(tetrahydro-2H-pyran-4-yl)propanamide]	> 15.8
Cc1c(S(=O)(=O)C2CCCC2)c(C)c(=O)n(C(CC2CCOCC2)C(=O)Nc2ncc(Cl)s2)c1C (stereo not shown) [Example 118, N-(5-chlorothiazol-2-yl)-2-(4-(cyclopentylsulfonyl)-3,5,6-trimethyl-2-oxopyridin-1(2H)-yl)-3-(tetrahydro-2H-pyran-4-yl)propanamide]	< 1.58
CS(=O)(=O)c1ccn([C@H](CC2CCOCC2)C(=O)Nc2ncc(Cl)s2)c(=O)c1 [Example 22, (R)-N-(5-chlorothiazol-2-yl)-2-(4-(methylsulfonyl)-2-oxopyridin-1(2H)-yl)-3-(tetrahydro-2H-pyran-4-yl)propanamide]	> 15.8
